Source: US20070149456A1, “Epithelial sodium channel inhibiting agents and uses therefor” (University of Pittsburgh, priority 2005, published 2007)
“And” between values parts separate entries of the source, which are not always exact repeats. Equal entries are not always repeated. “Also recorded” adds a separate entry of the source. Where two headings read alike, the source gives them in different places.

Biological target: T1, endogenous ENaC in HAE cells (Homo sapiens, UniProt P37088+P51168+P51170)
T1 construct: endogenous in cells; host or cells: primary human airway (bronchial) epithelial cells from transplant or donor lungs
T1 sequence (P37088 1-178): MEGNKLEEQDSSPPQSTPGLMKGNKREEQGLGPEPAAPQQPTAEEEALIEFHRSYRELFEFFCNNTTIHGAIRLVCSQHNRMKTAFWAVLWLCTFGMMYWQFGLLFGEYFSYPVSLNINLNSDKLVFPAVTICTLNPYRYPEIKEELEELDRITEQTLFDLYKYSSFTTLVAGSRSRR
T1 sequence (P37088 205-669): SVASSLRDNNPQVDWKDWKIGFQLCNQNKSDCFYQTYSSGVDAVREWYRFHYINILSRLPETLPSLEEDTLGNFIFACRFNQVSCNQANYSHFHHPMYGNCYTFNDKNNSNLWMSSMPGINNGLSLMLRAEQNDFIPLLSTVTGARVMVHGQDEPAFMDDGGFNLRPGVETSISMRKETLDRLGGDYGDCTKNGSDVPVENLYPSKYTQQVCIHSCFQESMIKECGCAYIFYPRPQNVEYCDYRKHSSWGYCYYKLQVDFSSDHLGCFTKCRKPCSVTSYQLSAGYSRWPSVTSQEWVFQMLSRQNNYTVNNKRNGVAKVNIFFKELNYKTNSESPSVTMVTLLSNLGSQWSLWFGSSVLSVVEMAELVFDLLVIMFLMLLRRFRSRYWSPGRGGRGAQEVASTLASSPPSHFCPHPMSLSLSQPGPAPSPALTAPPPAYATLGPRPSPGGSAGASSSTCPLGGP
T1 sequence (P51168 whole entry): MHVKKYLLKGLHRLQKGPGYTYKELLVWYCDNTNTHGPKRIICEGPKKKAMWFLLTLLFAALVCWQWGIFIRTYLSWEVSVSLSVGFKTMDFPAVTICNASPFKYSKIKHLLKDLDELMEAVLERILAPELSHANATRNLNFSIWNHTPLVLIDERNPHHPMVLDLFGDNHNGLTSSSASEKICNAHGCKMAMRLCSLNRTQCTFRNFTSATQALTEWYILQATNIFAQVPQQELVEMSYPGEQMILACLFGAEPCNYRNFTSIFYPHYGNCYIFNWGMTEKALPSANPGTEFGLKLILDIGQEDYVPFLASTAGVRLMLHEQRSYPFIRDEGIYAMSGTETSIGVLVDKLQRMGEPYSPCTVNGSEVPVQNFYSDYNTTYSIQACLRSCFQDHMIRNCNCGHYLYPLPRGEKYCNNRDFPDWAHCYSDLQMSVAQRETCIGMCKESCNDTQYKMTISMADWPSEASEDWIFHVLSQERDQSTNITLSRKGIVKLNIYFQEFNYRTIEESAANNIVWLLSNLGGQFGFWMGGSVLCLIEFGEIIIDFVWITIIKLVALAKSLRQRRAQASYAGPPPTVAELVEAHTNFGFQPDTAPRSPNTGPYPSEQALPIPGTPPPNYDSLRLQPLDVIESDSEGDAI
T1 sequence (P51170 1-138): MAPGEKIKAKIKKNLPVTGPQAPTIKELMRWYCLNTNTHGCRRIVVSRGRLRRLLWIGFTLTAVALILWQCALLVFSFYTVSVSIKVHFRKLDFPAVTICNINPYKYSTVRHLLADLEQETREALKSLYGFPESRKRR
T1 sequence (P51170 182-649): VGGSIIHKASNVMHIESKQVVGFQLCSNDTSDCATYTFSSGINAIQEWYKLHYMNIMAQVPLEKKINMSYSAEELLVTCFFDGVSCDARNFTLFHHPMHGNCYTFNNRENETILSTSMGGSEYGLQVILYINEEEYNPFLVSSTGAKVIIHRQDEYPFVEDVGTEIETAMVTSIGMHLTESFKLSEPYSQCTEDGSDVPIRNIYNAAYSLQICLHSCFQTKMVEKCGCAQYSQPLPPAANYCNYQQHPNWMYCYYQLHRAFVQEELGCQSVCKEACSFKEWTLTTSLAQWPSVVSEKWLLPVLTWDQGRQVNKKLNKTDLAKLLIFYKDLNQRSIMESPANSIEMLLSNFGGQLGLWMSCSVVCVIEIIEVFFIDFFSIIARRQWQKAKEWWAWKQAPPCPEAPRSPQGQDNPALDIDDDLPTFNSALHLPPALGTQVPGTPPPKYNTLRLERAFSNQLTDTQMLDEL
Experiment: Amiloride-sensitive short circuit current in primary human airway epithelial (HAE) cell monolayers, Ussing chamber
Format: cell-based
Settings: for Ki: HBE cells; for inhibition of amiloride sensitive short circuit currents: HAE, increasing concentrations of peptide
Text: Primary Cultures of HAE Cells—HAE cells were obtained from excess pathological tissue remaining after lung transplantation or from organ donor lungs deemed not suitable for transplantation under a protocol approved by the University of Pittsburgh […] Review Board. All cells were isolated from second through sixth generation bronchi and grown on permeable Transwell supports (Coming Inc.) as previously described (Devor, D. C., and Pilewski, J. M. (1999), UTP inhibits Na^+ absorption in wild-type and DeltaF508 CFTR-expressing human bronchial epithelia, Am. J. Physiol. 276, C827-C837 31. ).
Short Circuit Current Measurements—Cell culture inserts were mounted in modified Ussing chambers (Harvard Apparatus, Holliston, Mass.), and the monolayers were continuously short-circuited with a voltage/current clamp system (Physiologic Instruments, San Diego, Calif.). A 2-mV bipolar pulse was applied periodically to measure the resistance of the monolayer. As previously described by Bridges et al. (Bridges, R. J., Newton, B. B., Pilewski, J. M., Devor, D. C., Poll, C. T., and Hall, R. L. (2001), Na+ transport in normal and CF human bronchial epithelial cells is inhibited by BAY 39-9437, Am. J. Physiol. 281, L16-L23 32, Na^+ transport in normal and CF human bronchial epithelial cells is inhibited by BAY 39-9437), the bath solution contained (in mM) 120 NaCl, 25 NaHCO3, 3.3 KH2PO4, 0.8 K2HPO4, 1.2 MgCl2, 1.2 CaCl2, and 10 glucose. The pH of this solution was 7.4 when gassed with a mixture of 95% O2-5% CO2 at 37° C.
Primary cultures of HAE cells grown on permeable membrane supports and mounted in modified Ussing chambers were continuously short-circuited by a voltage clamp amplifier (Physiologic Instruments, San Diego, Calif.). Monolayers were exposed to increasing concentrations of either the γ-peptide (closed circles) or a scrambled peptide (open circles). […] (n=8-9).
Vectors and Cell Culture—Wild-type, C-terminal and double epitope tagged mouse ENaC subunit cDNAs were previously described (Hughey, R. P., Mueller, G. M., Bruns, J. B., Kinlough, C. L., Poland, P. A., Harkleroad, K. L., Carattino, M. D., and Kleyman, T. R. (2003) J Biol Chem 278, 37073-37082 and Ahn, Y. J., Brooker, D. R., Kosari, F., Harte, B. J., Li, J., Mackler, S. A., and Kleyman, T. R. (1999), Cloning and functional expression of the mouse epithelial sodium channel, Am J Physiol 277, F121-129). The γ subunit mutations were generated in pcDNA3.1 (+) using a standard two-step PCR method. A cDNA clone (IMAGE #: 3600399) encoding full length mouse prostasin was obtained from Open Biosystems (Huntsville, Ala.) and sub-cloned into pcDNA3.1 (+) (Invitrogen, Carlsbad, Calif.). MDCK type 1 cells were a gift from Barry M. Gumbiner (Memorial Sloan-Kettering Cancer Center, New York) and were cultured as previously described (Lavelle, J. P., Negrete, H. O., Poland, P. A., Kinlough, C. L., Meyers, S. D., Hughey, R. P., and Zeidel, M. L. (1997), Low permeabilities of MDCK cell monolayers: a model barrier epithelium, Am J Physiol 273, F67-75). CCD (mpkCCDc14) cells were a gift from Alain Vandewalle (Institut National de la Santéet de la Recherche Médicale, Paris, France) and were cultured as previously described (Bens, M., Vallet, V., Cluzeaud, F., Pascual-Letallec, L., Kahn, A., Rafestin-Oblin, M. E., Rossier, B. C., and Vandewalle, A. (1999) J Am Soc Nephrol 10, 923-934). HAE cells were isolated and cultured as described (Devor, D. C., Bridges, R. J., and Pilewski, J. M. (2000), Pharmacological modulation of ion transport across wild-type and DeltaF508 CFTR-expressing human bronchial epithelia, Am J Physiol Cell Physiol 279, C461-479). […]

| Substance | Ki (stated jointly for HBE or mpkCCDc14, read-out: Ki, block of endogenous ENaC activity) | IC50 (HAE primary cultures, nonlinear curve fitting, read-out: IC50, inhibition of short circuit currents) | inhibition of amiloride sensitive short circuit currents (listed as γ cleavage product) | inhibition of amiloride sensitive short circuit currents (listed as γ-peptide) | Ki (stated jointly for HBE and mpkCCDc14, read-out: apparent Ki, inhibition of endogenous ENaC activity) |
| --- | --- | --- | --- | --- | --- |
| Ac-DLRGALPHPLQRLRTPPPPNPARSAR-NH2 [α-26] | 50 to 100 µM |  |  |  |  |
| Ac-EAGSMRSTWEGTPPRFLNLIPLLVFNENEKGKARDFFTGRKRK-NH2 [γ-43] |  | 2000 nM and 2000 to 3000 nM | inhibited in a dose dependent manner | potent inhibitor; also recorded: strong inhibition | ~2 µM |
